Laboratory results from patent US6635436B2, “Methods for the screening of non-recombinant cell lines capable of expressing a single PDE4 isoenzyme and for the screening of PDE4 inhibitors” (Warner-Lambert Company, priority 1999, dated 2003).

What was measured:
PDE4A = experiment: Semi-quantitative RT-PCR of PDE4A expression in treated human cell lines; type: cell-based; conditions: control normalized to 1
Protocol: (§1) RNA was purified using Tripure™ Isolation Reagent, a single-step liquid phase separation issued from the total RNA isolation method developed by Chomczynski and Sacchi (1987). Washed and pelleted cells were resuspended at a concentration of 1×10^6 cells/ml Tripure and the total RNA extracted was quantified spectrophotometrically. RT-PCR was carried out using the commercial PCR ELISA Dig Labelling Kit. First strand cDNA was generated from 1 μg of total RNA per sample using random hexamers to prime the reverse transcription (First Strand cDNA Synthesis Kit for RT-PCR) and was directly amplified by PCR following the addition of specific primer pairs. Oligonucleotide primers were: PDE4A, 5′-[…]-3′ (SEQ ID N^o1) and 5′-[…]-3′ (SEQ ID N^o2), defining a 439-bp product; PDE4B, 5′-[…]-3′ and 5′-[…]-3′, defining a 327-bp product; PDE4C, 5′-[…]-3′ and 5′-[…]-3′ defining a 331-bp product; PDE4D, 5′-[…]-3′ and 5′-[…]-3′, defining a 339-bp product. The 5′-biotin-labelled capture probes used for the detection of PCR fragments were: 5′-[…]-3′ for PDE4A, 5′-[…]-3′ for PDE4B, 5′-[…]-3′ for PDE4C, 5′-[…]-3′ for PDE4D. Briefly, this PCR ELISA allows the specific detection of PCR products in a semi-quantitative microtiter plate format. The PCR products are labelled with digoxigenin during the amplification process (dig labelling). The labelled PCR products are analyzed by solution hybridization to a specific capture probe that is complementary to the inner part of the amplification product (dig detection). This capture probe is labelled with biotin to allow immobilization of the hybrid to a streptavidin coated microtiterplate surface. Unspecific amplification products will not hybridized to this capture probe and thus will be removed during the following washing steps; The bound hybrid is detected by an anti-digoxigenin peroxidase conjugate and by use of the calorimetric substrate ABTS. In comparison with suitable standards the color signal can be used for semi-quantitative evaluation of an amplification reaction. In our experiments the PDE4 subtypes PCR fragments amplified in the control cells (cells non treated with any of the compound tested), were our standards and the optical densities found for these PCR-fragments were normalized to 1.
(§2) All the cell lines used in this study were obtained from the European Collection of Cell Culture (ECACC). U-937, HT-29, HL-60, Jurkat, MOLT-4, HK-293, CACO2 were grown in RPMI 1640 medium supplemented with 10% (v/v) heat-inactivated calf serum at 37° C. in an humidified atmosphere of 95% air-5% CO2. […] Cells in suspension were seeded at 10^6 cells/ml and adherent ones were used when confluent. After the required incubation times, 10^6 cells were used for mRNA extraction and 2.5×10^8 for proteins extraction.
(§3) The control cells received 1% DMSO for 2 hours or 3 days. After treated, the cells were washed and prepared for mRNA extraction as described in the Materials and Methods section. PCR fragments were quantified by semi-quantitative PCR: The expression of the subtypes in control cells was normalized to 1 to allow expression of the data found in the treated cells as an x-fold increase or decrease expression of each subtype in comparison to the control value.
(§4) The expression of the subtypes in control cells was normalized to 1 to be able to express the data found in the treated cells as an x-fold increase or decrease expression of each subtype in comparison to the control value. The results obtained are summarised in table 2 and here again, none of the treatment used was able to induce the expression of a C subtype.

PDE4B = experiment: Semi-quantitative RT-PCR of PDE4B expression in treated human cell lines; type: cell-based; conditions: control normalized to 1
Protocol: as §1, §2, §3, §4

PDE4D = experiment: Semi-quantitative RT-PCR of PDE4D expression in treated human cell lines; type: cell-based; conditions: control normalized to 1
Protocol: as §1, §2, §3, §4

PDE 4D3 = experiment: Semi-quantitative RT-PCR of PDE4D3 expression in treated human cell lines; type: cell-based; conditions: control normalized to 1
Protocol: as §1, §2, §3, §4

PDE4 = experiment: Chromatographic resolution and assay of PDE activities in control and PMA-treated cells; type: cell-based, human; conditions: HL-60 cells treated with 1 μM PMA for 72 hours; control cells 0.14
Protocol: as §2
The adherent cells were disrupted by trypsinisation and along with the non-adherent cells were washed carefully at least twice with sterile PBS and counted. […]
Phosphodiesterase activities were assayed using a modification of the method described by Smith et al. (1993) utilizing the observation that 5′-nucleotides bind very strongly to alumina while the cyclic nucleotides are readily eluted at neutral or slightly alkaline pH. […] The separated [^3H]cAMP was back-corrected for recovery using the separated and non-separated ^14C values and expressed as a fraction of the total [^3H]cAMP to give the amount of substrate hydrolyzed.
These studies were conducted originally to set up PDE4 subtype cellular assays, for this reason the cell lines that were expressing either a single or majority of a single subtype after the different treatments, were analysed for their phosphodiesterase activities. […]

| Compound | PDE4 subtype A x-fold change in expression vs control (number in brackets) (PDE4A; CACO-2 cells) | PDE4 subtype A x-fold change in expression vs control (number in brackets) (PDE4A; HK-293 cells) | PDE4 subtype A x-fold change in expression vs control (number in brackets) (PDE4A; HT-29 cells) | PDE4 subtype A x-fold change in expression vs control (number in brackets) (PDE4A; Jurkat cells) | PDE4 subtype A x-fold change in expression vs control (number in brackets) (PDE4A; Molt-4 cells) | PDE4 subtype B x-fold change in expression vs control (number in brackets) (PDE4B; HK-293 cells) | PDE4 subtype B x-fold change in expression vs control (number in brackets) (PDE4B; HL-60 cells) | PDE4 subtype B x-fold change in expression vs control (number in brackets) (PDE4B; Jurkat cells) | PDE4 subtype B x-fold change in expression vs control (number in brackets) (PDE4B; Molt-4 cells) | PDE4 subtype D x-fold change in expression vs control (number in brackets) (PDE4D; HL-60 cells) | PDE4 subtype D x-fold change in expression vs control (number in brackets) (PDE4D; HT-29 cells) | PDE4 subtype D x-fold change in expression vs control (number in brackets) (PDE4D; Jurkat cells) | PDE4 subtype D x-fold change in expression vs control (number in brackets) (PDE4D; Molt-4 cells) | PDE4 D3 x-fold change in expression vs control (number in brackets) (PDE 4D3; CACO-2 cells) | PDE4 D3 x-fold change in expression vs control (number in brackets) (PDE 4D3; HK-293 cells) | PDE4 D3 x-fold change in expression vs control (number in brackets) (PDE 4D3; HT-29 cells) | also measured |
| --- | --- | --- | --- | --- | --- | --- | --- | --- | --- | --- | --- | --- | --- | --- | --- | --- | --- |
| C[C@@H]1C[C@H]2[C@@H]3CCC4=CC(=O)C=C[C@]4(C)[C@@]3(F)[C@@H](O)C[C@]2(C)[C@@]1(O)C(=O)CO [Dexamethasone, dexamethasone] | 1 fold | 1 fold | 1 fold | 1 fold | 2 fold | −1.5 fold | −1.2 fold | 1 fold | 1 fold | 1 fold | 1 fold | 1 fold | 1.1 fold | 1 fold | 1 fold | 1 fold | PDE4 subtype A x-fold change in expression vs control (number in brackets) (PDE4A; HL-60 cells): 1 fold; PDE4 subtype A x-fold change in expression vs control (number in brackets) (PDE4A; Molt-4 cells, listed as dexamethasone): +2 fold; PDE4 subtype D x-fold change in expression vs control (number in brackets) (PDE4D; CACO-2 cells): 1 fold; PDE4 subtype D x-fold change in expression vs control (number in brackets) (PDE4D; HK-293 cells): 1 fold; PDE4 D3 x-fold change in expression vs control (number in brackets) (PDE 4D3; HL-60 cells): 1 fold |
| CCCCCCCCCCCCCC(=O)O[C@@H]1[C@@H](C)[C@@]2(O)[C@@H](C=C(CO)C[C@]3(O)C(=O)C(C)=C[C@@H]23)[C@@H]2C(C)(C)[C@]12OC(C)=O [PMA, phorbol myristate acetate] | 1 fold | 1 fold | 1.5 fold | 1 fold | −1.5 fold | 1 fold | −12.2 fold | −2 fold | 1 fold | −14.5 fold | 1.8 fold | −1.9 fold | 1.1 fold | −1.1 fold | 1 fold | 1 fold | maximum PDE4 activity (PDE4): 0.9 pmol AMP formed/min/μl |
